Test results published in ChEMBL document CHEMBL1127438, “Substituted (S)-phenylpiperidines and rigid congeners as preferential dopamine autoreceptor antagonists: synthesis and structure-activity relationships” (J Med Chem, 1994).
pKi: −log10 of the molar value. Each block holds one compound with its values, some of them ahead of it.

How the values were obtained:
[1] = molecular target: Dopamine receptor; experiment: Tested for in vitro binding affinity against cloned mammalian dopamine autoreceptor (DA) receptors expressed in CHO-K1 cells using [3H]U-86170 as radioligand; assay type: cell-based
[2] = molecular target: T1, D(3) dopamine receptor (Homo sapiens, UniProt P35462); experiment: Tested for in vitro binding affinity against cloned mammalian dopamine autoreceptor (DA) receptors expressed in CHO-K1 cells [3H]-spiperone as radioligand; assay type: cell-based
T1 sequence (P35462 whole entry): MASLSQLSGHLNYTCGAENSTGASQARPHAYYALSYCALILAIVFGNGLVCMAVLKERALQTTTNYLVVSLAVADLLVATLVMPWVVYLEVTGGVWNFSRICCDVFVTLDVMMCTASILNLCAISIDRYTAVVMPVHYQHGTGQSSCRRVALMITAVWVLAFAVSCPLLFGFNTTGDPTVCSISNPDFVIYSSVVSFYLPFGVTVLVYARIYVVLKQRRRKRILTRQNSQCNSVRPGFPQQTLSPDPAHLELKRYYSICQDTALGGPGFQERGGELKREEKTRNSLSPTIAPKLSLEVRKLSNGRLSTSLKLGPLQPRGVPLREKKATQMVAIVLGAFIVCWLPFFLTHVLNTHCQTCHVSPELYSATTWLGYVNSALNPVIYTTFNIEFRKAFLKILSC

[3] = molecular target: T2, D(2) dopamine receptor (Rattus norvegicus, UniProt P61169); experiment: Tested for affinity against striatal dopamine autoreceptor (DA) D2 receptors using [3H]spiperone as radioligand in rats.
T2 sequence (P61169 whole entry): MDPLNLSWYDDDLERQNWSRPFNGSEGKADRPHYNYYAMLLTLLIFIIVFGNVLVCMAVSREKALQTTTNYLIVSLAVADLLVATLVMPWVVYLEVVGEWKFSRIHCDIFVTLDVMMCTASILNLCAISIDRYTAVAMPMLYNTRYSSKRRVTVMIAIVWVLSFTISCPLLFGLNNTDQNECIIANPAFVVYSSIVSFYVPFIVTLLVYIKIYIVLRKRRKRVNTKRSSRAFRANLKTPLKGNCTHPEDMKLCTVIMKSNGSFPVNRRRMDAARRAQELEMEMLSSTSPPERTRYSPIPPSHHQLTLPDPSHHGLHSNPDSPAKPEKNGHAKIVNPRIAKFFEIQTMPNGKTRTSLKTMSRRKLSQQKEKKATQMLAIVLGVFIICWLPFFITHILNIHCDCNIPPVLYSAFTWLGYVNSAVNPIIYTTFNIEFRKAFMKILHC

[4] = system: Rattus norvegicus; experiment: Compound is evaluated for DOPA accumulation in reserpine-pretreated habituated rats at 100 micro mol/kg of subcuteneous dose in rat striatum; assay type: functional
[5] = system: Rattus norvegicus; experiment: Compound is evaluated for DOPA accumulation in reserpine-pretreated habituated rats at 50 umol/kg of subcuteneous dose in rat striatum; assay type: functional
[6] = system: Rattus norvegicus; experiment: Evaluated for biochemical levels of DOPAC in nonpretreated habituated rats for subcuteneous dose of 100 micro mol/kg in rat striatum; assay type: functional
[7] = system: Rattus norvegicus; experiment: Evaluated for locomotor activity in nonpretreated habituated rats in 100 umol/kg of subcuteneous dose; assay type: functional; design: unit not given here
[8] = system: Rattus norvegicus; experiment: Compound is evaluated for locomotor activity in nonpretreated habituated rats in 50 umol/kg of subcuteneous dose; assay type: functional
[9] = molecular target: T3, D(2) dopamine receptor (Homo sapiens, UniProt P14416); experiment: biochemical
T3 sequence (P14416 whole entry): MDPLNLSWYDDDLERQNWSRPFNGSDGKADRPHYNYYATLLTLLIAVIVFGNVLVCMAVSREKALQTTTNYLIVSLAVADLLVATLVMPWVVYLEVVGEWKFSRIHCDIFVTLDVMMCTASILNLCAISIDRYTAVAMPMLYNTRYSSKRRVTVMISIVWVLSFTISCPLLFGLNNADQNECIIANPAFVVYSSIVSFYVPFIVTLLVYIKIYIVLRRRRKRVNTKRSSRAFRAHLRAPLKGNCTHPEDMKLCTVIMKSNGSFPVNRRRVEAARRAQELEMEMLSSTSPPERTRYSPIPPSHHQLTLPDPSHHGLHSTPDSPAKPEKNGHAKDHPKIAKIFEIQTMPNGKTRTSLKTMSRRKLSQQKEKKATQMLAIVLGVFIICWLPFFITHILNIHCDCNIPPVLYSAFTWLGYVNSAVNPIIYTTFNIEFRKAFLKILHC
Description: Affinity against recombinant dopamine receptor (DA) D2 expressed in CHO-K1 cells, using [3H]-spiperone as radioligand

[10] = system: Rattus norvegicus; experiment: Compound is tested for its ability to displace (Di-Pr-5,6-ADTN) at […] of subcutaneous dose from rat striatal binding sites in vivo; assay type: functional
[11] = organism: Rattus norvegicus; experiment: Compound is tested for concomitant ability to antagonize the locomotor activity induced by Di-Pr-5,6-ADTN; assay type: functional
[12] = system: Rattus norvegicus; experiment: Compound is evaluated for biochemical levels of DOPAC in nonpretreated habituated rats for subcuteneous dose of 100 umol/kg in rat striatum; assay type: functional
[13] = system: Rattus norvegicus; experiment: Evaluated for locomotor activity in nonpretreated habituated rats at 100 umol/kg of subcuteneous dose; assay type: functional; design: unit not given here
[14] = system: Rattus norvegicus; experiment: Compound is evaluated for DOPA accumulation in nonpretreated habituated rats for subcuteneous dose of 100 micro mol/kg in rat striatum; assay type: functional
[15] = molecular target: T1, D(3) dopamine receptor; experiment: Tested for in vitro binding affinity against cloned mammalian dopamine D3 receptor, expressed in CHO-K1 cells, using [3H]spiperone as radioligand; assay type: cell-based
[16] = system: Rattus norvegicus; experiment: Effect of (60 min after administration of 200 (uM/kg) subcuteneous dose on DA release in brain dialysis model of rat striatum; Values expressed as percent of saline controls; assay type: functional
[17] = organism: Rattus norvegicus; experiment: Compound was tested in vio for concomitant ability to antagonize the locomotor activity of rat induced by Di-Pr-5,6-ADTN, Value expressed as locomotor activity (LMA), % of control; assay type: functional; design: scale not given: the % may be the effect or the level left
[18] = system: Rattus norvegicus; experiment: Tested in vivo for its ability to displace DA receptor agonist (Di-Pr-5,6-ADTN) from rat striatal binding sites at 0.25 uM/Kg sc. dose (after subtraction of cerebellum levels); assay type: functional
[19] = system: Rattus norvegicus; experiment: Evaluated biochemically in reserpine-pretreated habituated rats for (100 umol/kg) subcuteneous dose, Value expressed as locomotor activity (LMA); assay type: functional
[20] = molecular target: T2, D(2) dopamine receptor
Description: Affinity against striatal dopamine D2 receptors using [3H]spiperone as radioligand in rats.

[21] = molecular target: T3, D(2) dopamine receptor; experiment: biochemical; remark: listed apart in the source
Description: In vitro binding affinity against cloned mammalian dopamine D2 autoreceptor, expressed in CHO-K1 cells, using [3H]U-86170 as radioligand

[22] = system: Rattus norvegicus; experiment: Compound is evaluated for DOPA accumulation in reserpine-pretreated habituated rats at 100 umol/kg of subcuteneous dose in rat striatum; assay type: functional
[23] = system: Rattus norvegicus; experiment: Compound is evaluated for locomotor activity in reserpine-pretreated habituated rats at 100 micro mol/kg of subcuteneous dose; assay type: functional
[24] = system: Rattus norvegicus; experiment: Evaluated biochemically in reserpine-pretreated habituated rats for (100 umol/kg) subcuteneous dose in rat striatum (DOPAacc), Value expressed as counts/30 min; assay type: functional
[25] = system: Rattus norvegicus; experiment: Compound is evaluated for DOPAC accumulation in nonpretreated habituated rats after subcuteneous dose of 100 micro mol/kg in rat striatum; assay type: functional
[26] = system: Rattus norvegicus; experiment: Evaluated biochemically in nonpretreated habituated rats for (100 uM/kg) subcuteneous dose, Value expressed as locomotor activity (LMA); assay type: functional
[27] = molecular target: D(3) dopamine receptor (Rattus norvegicus, UniProt P19020); experiment: Tested for in vitro binding affinity against cloned mammalian dopamine autoreceptor, expressed in CHO-K1 cells, using [3H]spiperone as radioligand; assay type: cell-based
D(3) dopamine receptor (Rattus norvegicus, UniProt P19020), sequence (P19020 whole entry): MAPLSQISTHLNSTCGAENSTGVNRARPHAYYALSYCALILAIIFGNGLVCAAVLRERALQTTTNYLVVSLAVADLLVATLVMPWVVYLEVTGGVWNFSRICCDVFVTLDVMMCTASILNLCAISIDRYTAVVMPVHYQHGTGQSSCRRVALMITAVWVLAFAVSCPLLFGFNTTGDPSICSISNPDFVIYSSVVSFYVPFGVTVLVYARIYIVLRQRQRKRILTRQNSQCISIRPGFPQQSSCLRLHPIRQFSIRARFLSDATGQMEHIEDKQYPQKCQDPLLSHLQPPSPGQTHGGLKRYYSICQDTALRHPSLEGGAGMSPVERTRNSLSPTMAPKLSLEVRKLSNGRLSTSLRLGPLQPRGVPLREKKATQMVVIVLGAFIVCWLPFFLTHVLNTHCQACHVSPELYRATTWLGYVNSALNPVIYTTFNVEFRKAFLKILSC

[28] = system: Rattus norvegicus; experiment: Evaluated for DOPA accumulation (DOPAacc) level in nonhabituated rats after subcuteneous dose (100 uM/kg) in rat striatum; assay type: functional
[29] = system: Rattus norvegicus; experiment: Evaluated for DOPAC level in nonpretreated habituated rats after subcuteneous dose of 100 micro mol/kg in rat striatum; assay type: functional
[30] = system: Rattus norvegicus; experiment: Compound is evaluated biochemically in nonhabituated rats for (100 umol/kg) subcuteneous dose, Value expressed as locomotor activity (LMA); assay type: functional
[31] = system: Rattus norvegicus; experiment: Compound is evaluated DOPA accumulation in nonhabituated rats for (1.3 micro mol/kg) subcuteneous dose in rat striatum; assay type: functional
[32] = system: Rattus norvegicus; experiment: Compound is tested for its ability to displace Di-Pr-5,6-ADTN at […] subcutaneous dose from rat striatal binding sites in vivo; assay type: functional
[33] = system: Rattus norvegicus; experiment: Effect (60 min after administration of 200 (5.3 umol/kg) subcuteneous dose on DA release in brain dialysis model of rat; assay type: functional
[34] = system: Rattus norvegicus; experiment: Compound is evaluated for locomotor activity in nonpretreated habituated rats at 1.6 micro mol/kg of subcuteneous dose; assay type: functional
[35] = system: Rattus norvegicus; experiment: Compound is evaluated for locomotor activity in nonhabituated rats at 1.3 micro mol/kg of subcuteneous dose; assay type: functional
[36] = system: Rattus norvegicus; experiment: Evaluated biochemically in nonhabituated rats for (100 umol/kg) subcuteneous dose, Value expressed as locomotor activity (LMA); assay type: functional
[37] = system: Rattus norvegicus; experiment: Compound is evaluated for DOPAC level in nonpretreated habituated rats after subcuteneous dose (100 micro mol/kg) in rat striatum; value expressed as percent of saline controls; assay type: functional
[38] = organism: Rattus norvegicus; experiment: Tested in vio for concomitant ability to antagonize the locomotor activity of rat induced by Di-Pr-5,6-ADTN, Value expressed as locomotor activity (LMA), % of control; assay type: functional; design: scale not given: the % may be the effect or the level left

Ki [1]: 21 nM | pKi [2]: 7.66 | pKi [3]: 7.19 | pKi [9]: < 6.66
Compound: CCCN1CCCC2c3cccc(OS(=O)(=O)C(F)(F)F)c3CCC21 (stereo in doubt; 46)
Activity [4]: 62% | Activity [5]: 85% | Activity [6]: 263% | LMA [7]: 200 | LMA [8]: 211

Compound: CCCN(CCC)C1CCc2c(ccc(O)c2O)C1 (configuration not stated)
Activity [10]: 0% | LMA [11]: 100%

Ki [1]: 162 nM | pKi [2]: 7.04 | pKi [3]: 5.88 | pKi [9]: < 6.66
Compound: CCCN1CCC[C@@H](c2cccc(OS(=O)(=O)c3ccc(C)cc3)c2)C1
Activity [12]: 89% | LMA [13]: 152

Compound: CCCc1cccc([C@@H]2CCCN(CCC)C2)c1
Ki [1]: 57 nM | pKi [2]: 7.07 | pKi [3]: 6.41 | Activity [14]: 190% | Activity [4]: 62% | LMA [4]: 734 | Activity [6]: 181% | pKi [9]: < 6.66

Compound: CCCN1CCC[C@@H](c2cccc(C#N)c2)C1
pKi [15]: 6.60 | Activity [16]: 252% | Control [17]: 31% | Control [18]: 66% | Control [19]: 12% | pKi [20]: 5.94 | pKi [9]: 6.58 | pKi [21]: 6.92

Compound: CCCN1CCC[C@@H](c2cccc(SC)c2)C1
Ki [1]: 49 nM | pKi [2]: 6.86 | pKi [3]: 6.07 | Activity [22]: 92% | Activity [6]: 118% | LMA [13]: 313 | LMA [23]: 5 | pKi [9]: < 6.66

Compound: CCCN1CCC[C@@H](c2cccc(N)c2)C1
Activity [24]: 91% | Activity [25]: 128% | Control [26]: 113% | Control [19]: 72% | pKi [20]: 5.70 | pKi [9]: < 6.66

Compound: CCCN1CCC[C@@H](c2cccc(OC)c2)C1
pKi [27]: 5.88 | Activity [24]: 66% | Activity [28]: 131% | Activity [29]: 149% | Control [30]: 160% | Control [26]: 463% | Control [19]: 23% | pKi [20]: 5.46 | pKi [9]: < 6.66 | pKi [21]: 6.22

Compound: O=C(CCCN1CCC(O)(c2ccc(Cl)cc2)CC1)c1ccc(F)cc1 [HALOPERIDOL]
Activity [31]: 356% | Activity [6]: 404% | Activity [32]: 82% | Activity [33]: 211% | LMA [11]: 7% | LMA [34]: 61 | LMA [35]: 2

Compound: CCCN1CCC[C@@H](c2cccc(C(C)=O)c2)C1
pKi [15]: 5.67 | Activity [24]: 73% | Activity [29]: 243% | Activity [16]: 179% | Control [18]: 44% | Locomotor activity (% of control) [36]: 139% | Control [26]: 824% | Control [19]: 7% | Control [37]: 183% | Control [38]: 81% | pKi [20]: 5.18 | pKi [9]: < 6.66 | pKi [21]: < 5.73
